We go through six sequences from US7547439B1, “Tumor rejection antigens” (Ludwig Institute for Cancer Research, priority 1998, dated 2009).

The subject of the experiment is LB1751-EBV cells. In words: Chromium release assay: lysis by CTL 447A/5 of peptide-sensitised LB1751-EBV cells. In kind it is cell-based, human. Particulars: for Lysis by CTL 447A/5 of peptide-pulsed LB1751-EBV cells pre-treated with anti-HLA-A2 mAb MA2.1: MA2.1 (1/5 dilution of hybridoma supernatant) during 51Cr-labeling, E/T 20, 4 h; for Lysis by CTL 447A/5 of LB1751-EBV cells incubated with peptide: peptide concentration as high as 10 μM. Here is the method:
FIG. 4. […] (A) LB1751-EBV cells pulsed with peptides derived from MAGE-A10. Chiromium-labelled autologous EBV-transformed lymphoblastoid cells LB1751-EBV were pulsed for 30 min with peptides as indicated at various concentrations before addition of CTL 447A/5 at an E/T ratio of 20. Chromium release was measured after 4 h. (B) Enhancement by mAb MA2.1 of lysis of LB1751-EBV cells pulsed with MAGE-A10 peptides. LB1751-EBV cells were pre-treated with or without anti-HLA-A2 antibody MA2.1. The pre-treatment was performed by adding mAb MA2.1 during ^51Cr-labeling. Peptide sensitisation and chromium release assay were carried out as in (A).
FIG. 5. […] LB1751-EBVcells were pre-treated with or without anti-HLA-A2 antibody MA2. 1. Ab treatment and peptide sensitisation of the cells and chromium release assay were carried out as in FIG. 4.
In the amino acid sequence corresponding to the nucleotides 547-825 there are two nonapeptides, […] (codons 183-191 in the ORF) (SEQ. ID. NO. 46) and […] (254-262) (SEQ. ID. NO. 42), which conform to the HLA-A2.1 peptide binding motif, i.e., a nona- or decapeptide with Leu or Met at position 2 and Leu, Val or Ile at its C-terminus (Rammensee, H. G., et al., 1995, Immunogenetics, 41:178-228). These two peptides and their overlapping decapeptides were synthesised on solid phase using F-moc for transient NH2-terminal protection and characterised by mass spectrometry. The peptides were >90% pure, as indicated by analytical HPLC, and used to sensitise autologous lymphoblastoid cell line LB1751-EBV in a chromium release assay as described in (Boon, T., et al., 1980, J. Exp. Med 152:1184-1193) but modified as follows. The target cells were ^51Cr-labeled for 1 h at 37° C. and then washed extensively. 1,000 target cells were then incubated in 96-well microplates in the presence of various concentrations of peptides for 30 min at 37° C. and CTLs were added at an E/T ratio of 20. Chromium release was measured after 4 h at 37° C.
Enhancement of peptide binding to the HLA-A2 molecule was achieved by incubation of target cells during ^51Cr-labeling with a ⅕ dilution of hybridoma culture supernatant of mAb MA2.1 (McMichael, A. J., et al., 1980, Hum. Immunol. 1:121-129; and Bodmer, H., et al., 1989, Nature 342:443-446).
This peptide and its overlapping decapeptide […] (codons 232-241) (SEQ. ID. NO. 45) were synthesised by the technique described above. LB1751-EVB cells incubated with either of the peptides, at a concentration of as high as 10 μM peptide, were not lysed by CTL 447A/5. […] Enhancement of peptide binding to the HLA-A2 molecule was achieved by incubation of target cells during ^51Cr-labeling with a ⅕ dilution of hybridoma culture supernatant of mAb MA2.1 (McMichael, A. J., et al., 1980, Hum. Immunol. 1: 121-129; and Bodmer, H., et al., 1989, Nature 342.443-446).

Where [1] appears, read: cells pulsed 30 min with peptide at various concentrations, E/T ratio 20, chromium release after 4 h, no mAb MA2.1.

Entries after “also recorded” stand apart in the source; their conditions may differ.

Regarding “CMLLVFGIDV (listed as Homo sapiens) [decapeptide from MAGE-A10 (182-191)]”, the “Lysis by CTL 447A/5 of peptide-pulsed LB1751-EBV cells pre-treated with anti-HLA-A2 mAb MA2.1” value (“Lysis … with anti-HLA-A2 mAb MA2.1” for short) was “failed to confer recognition”. Besides, the “Sensitisation of LB1751-EBV cells to lysis by CTL 447A/5” value (“Sensitisation of LB1751-EBV cells” for short) under setting [1] was “failed to confer recognition”.
On to “GLYDGREHSV (listed as Homo sapiens) [decapeptide encoded by MAGE-A8 (codons 232-241)]”, for which the “Lysis … with anti-HLA-A2 mAb MA2.1” value is “not” and the “Lysis by CTL 447A/5 of LB1751-EBV cells incubated with peptide” value was “not lysed”.
In the case of “GLYDGREHS (listed as Homo sapiens) [nonapeptide encoded by MAGE-A8 (codons 232-240)]”, the “Lysis … with anti-HLA-A2 mAb MA2.1” value was “enhancement of lysis” and the “Lysis by CTL 447A/5 of LB1751-EBV cells incubated with peptide” value is reported as “not lysed”. Where the note is “peptide concentration 100 μM”, the “Sensitisation of LB1751-EBV cells” value was “did sensitise LB1751-EBV cells to lysis”.
Consider “MLLVFGIDV [nonapeptide from MAGE-A10 (codons 183-191)]”, for which the “Lysis … with anti-HLA-A2 mAb MA2.1” value is “failed to confer recognition”. Moreover, under setting [1], the “Sensitisation of LB1751-EBV cells” value was “failed to confer recognition”.
Turning to “GLYDGMEHLI (listed as Homo sapiens) [decapeptide encoded by MAGE-A10 (254-263)]”, the “Lysis … with anti-HLA-A2 mAb MA2.1” value is recorded as “significantly increased sensitivity to lysis”. The “Sensitisation of LB1751-EBV cells” value under setting [1] is recorded as “less efficiently”.
For “GLYDGMEHL (listed as Homo sapiens) [nonapeptide encoded by MAGE-A10 (codons 254-262), presented by HLA-A2]”, in that order: “significantly increased sensitivity to lysis” and “could sensitise LB1751-EBV cells to lysis; also recorded: recognises”.
